As a reminder, the IC50 is the midpoint of a concentration-inhibition curve. In general, half-life refers to how long it takes for the measured level to halve.

The values below come from article PMC3166236 (Journal of medicinal chemistry, 2011).

The test system of one data set is KB cells. The following applies: human.
A short description of data set [1]: Enzymatic stability in rat intestinal homogenate pH 6.5 at 37 °C. Conditions: Sprague-Dawley, pH 6.5, Half-lives, rat intestinal homogenate pH 6.5, 37 °C.
A further data set can be described thus: in vitro. The following applies: human.
For data set [2] the following is noted: in vivo murine model; relative to 2 or its cyclic form 4; cited from earlier work.
For data set [3] the following is noted: parent (S)-HPMPA; cited from earlier work.
For data set [4], the system named is Vaccinia virus strain Copenhagen. Briefly: microbe, parasite or virus in culture. Type of data set: cell-based. Conditions: Orthopoxvirus vaccinia, read-out: Antiviral Activity IC50 Vaccinia.
In a further data set the test system is Towne strain of HCMV. Briefly: microbe, parasite or virus in culture. The following applies: Human betaherpesvirus 5, read-out: Antiviral Activity IC50 HCMV. Type of data set: cell-based, human cytomegalovirus.
The subject of the next data set is hPEPT1. The following applies: hPEPT1 expressed in the model system; cited from earlier work.
Setting [5] is: t1/2 Intestinal Homogenate pH 6.5, Rp isomer.
The mark [6] stands for this setting: t1/2 Intestinal Homogenate pH 6.5, Sp isomer.

`CC(C)OC(=O)[C@@H](N)Cc1ccc(OP2(=O)CO[C@@H](Cn3ccc(N)nc3=O)CO2)cc1` (mixture of isomers) [8´, Isopropyl O-[(5S)-5-[(4-amino-2-oxopyrimidin-1(2H)-yl)methyl]-2-oxido-1,4,2-dioxaphosphinan-2-yl]-(L)-tyrosinate] gave an IC50 in the data set with KB cells greater than 100 µM.
Still for that read-out and setting: the same measure for `CC(C)CNC(=O)[C@@H](N)Cc1ccc(OP2(=O)CO[C@@H](Cn3cnc4c(N)ncnc43)CO2)cc1` (mixture of isomers) [11´, O-[(5S)-5-[(6-Amino-9H-purin-9-yl)methyl]-2-oxido-1,4,2-dioxaphosphinan-2-yl]-N-(2-methylpropyl)-(L)-tyrosinamide]: greater than 100 µM.
Regarding `CC(C)OC(=O)[C@@H](N)Cc1ccc(OP2(=O)CO[C@@H](Cn3ccc(N)nc3=O)CO2)cc1` (mixture of isomers) [Compound 8, Isopropyl O-[(5S)-5-[(4-amino-2-oxopyrimidin-1(2H)-yl)methyl]-2-oxido-1,4,2-dioxaphosphinan-2-yl]-(L)-tyrosinate], the half-life at 0.5 mg/ml in data set [1] (setting [5]) and in data set [1] (setting [6]) was less than 0.5 h each time. This compound yielded an IC50 in the data set “in vitro” greater than 100 µM.
As to `CC(C)CNC(=O)[C@@H](N)Cc1ccc(OP2(=O)CO[C@@H](Cn3cnc4c(N)ncnc43)CO2)cc1` (mixture of isomers) [Compound 11, O-[(5S)-5-[(6-Amino-9H-purin-9-yl)methyl]-2-oxido-1,4,2-dioxaphosphinan-2-yl]-N-(2-methylpropyl)-(L)-tyrosinamide], the half-life at 0.5 mg/ml in data set [1] (setting [5]) came out at 12.8 h; in data set [1] (setting [6]) it was 1.9 h. This compound returned a half-maximal inhibitory concentration (IC50) in “in vitro” greater than 100 µM. The half-life amounted to 3.55 h in the data set “Stability in rat plasma” (Rp diastereomer) and 0.383 h in the data set “Stability in rat plasma” (Sp diastereomer).
As to `COC(=O)C(COP1(=O)COC(Cn2ccc(N)nc2=O)CO1)NC(=O)C(N)C(C)C` (stereo not drawn) [(L)-Val-(L)-Ser-OMe cHPMPC], the “increase in oral bioavailability of total 2 species” value in [2] is listed as “eight-fold”.
In the data set “in vitro”, `Nc1ncnc2c1ncn2C[C@@H](CO)OCP(=O)(O)O` [Compound 1, (S)-9-[3-hydroxy-2-(phosphonomethoxy)propyl]adenine, reference compound] gave a 50% inhibitory concentration (IC50) greater than 100 µM. In data set [3], the “oral bioavailability of the parent compound” value is listed as less than 5%.
In the case of `Nc1ccn(C[C@@H](CO)OCP(=O)(O)O)c(=O)n1` [Compound 2, 1-(S)-[3-hydroxy-2-(phosphonomethoxy)propyl]cytosine, reference compound], the figures for the IC50 (in data set [4]; in the data set “in vitro”) were 20 µM and greater than 100 µM, respectively.
Compound `Nc1ncnc2c1ncn2C[C@H]1COP(=O)(O)CO1` [Compound 3, (5S)-5-[(6-Amino-9H-purin-9-yl)methyl]-1,4,2-dioxaphosphinan-2-ol 2-oxide, reference compound] came in with an IC50 in “in vitro” greater than 100 µM.
With `Nc1ccn(C[C@H]2COP(=O)(O)CO2)c(=O)n1` [Compound 4], the IC50 in data set [4] is 40 µM; in the data set “in vitro” it was greater than 100 µM; with Towne strain of HCMV, 0.25 µM.
Consider `COC(=O)[C@@H](N)Cc1ccc(OP2(=O)CO[C@@H](Cn3ccc(N)nc3=O)CO2)cc1` (stereo partly drawn) [Compound 6, Methyl O-[(5S)-5-[(4-amino-2-oxopyrimidin-1(2H)-yl)methyl]-2-oxido-1,4,2-dioxaphosphinan-2-yl]-(L)-tyrosinate], for which the half-life at 0.5 mg/ml in data set [1] (setting [5]) and in data set [1] (setting [6]) was less than 0.5 h in each case. The compound further yielded a half-inhibitory concentration (IC50) in the data set “in vitro” greater than 100 µM.
On to `COC(=O)[C@H](N)Cc1ccc(OP2(=O)CO[C@@H](Cn3ccc(N)nc3=O)CO2)cc1` (stereo partly drawn) [Compound 7, Methyl O-[(5S)-5-[(4-amino-2-oxopyrimidin-1(2H)-yl)methyl]-2-oxido-1,4,2-dioxaphosphinan-2-yl]-(D)-tyrosinate], for which the half-life at 0.5 mg/ml in [1] (setting [5]) stood at 3.5 h; in data set [1] (setting [6]), 1.2 h. In addition, the IC50 in “in vitro” was greater than 100 µM.
Taken in the same sequence, the figures for `CC(C)(C)NC(=O)[C@H](N)Cc1ccc(OP2(=O)CO[C@@H](Cn3ccc(N)nc3=O)CO2)cc1` (stereo partly drawn) [Compound 9, O-[(5S)-5-[(4-Amino-2-oxopyrimidin-1(2H)-yl)methyl]-2-oxido-1,4,2-dioxaphosphinan-2-yl]-N-tert-butyl-(D)-tyrosinamide] were 28.9 h, 3.85 h and greater than 100 µM.
Taken in the same sequence, the figures for `COC(=O)[C@@H](N)Cc1ccc(OP2(=O)CO[C@@H](Cn3cnc4c(N)ncnc43)CO2)cc1` (stereo partly drawn) [Compound 10, Methyl O-[(5S)-5-[(6-amino-9H-purin-9-yl)methyl]-2-oxido-1,4,2-dioxaphosphinan-2-yl]-(L)-tyrosinate] were less than 0.5 h, less than 0.5 h and greater than 100 µM.
As to `COC(=O)[C@H](Cc1ccc(OP2(=O)CO[C@@H](Cn3cnc4c(N)ncnc43)CO2)cc1)NC(=O)[C@@H](N)C(C)C` (stereo partly drawn) [Compound 13, Methyl (L)-valyl-O-[(5S)-5-[(6-amino-9H-purin-9-yl)methyl]-2-oxido-1,4,2-dioxaphosphinan-2-yl]-(L)-tyrosinate], the half-life at 0.5 mg/ml in [1] (setting [5]) and in data set [1] (setting [6]) was less than 0.5 h each time. Also, the IC50 in “in vitro” is greater than 100 µM.
Regarding `CC(C)CNC(=O)[C@@H](N)Cc1ccc(OP(=O)(O)CO[C@H](CO)Cn2cnc3c(N)ncnc32)cc1` [Compound 28, O-[([[(2S)-1-(6-Amino-9H-purin-9-yl)-3-hydroxypropan-2-yl]oxy]methyl)(hydroxy)phosphoryl]-N-(2-methylpropyl)-(L)-tyrosinamide], the IC50 in “in vitro” was greater than 100 µM.
For the compound `COC(=O)[C@H](COP1(=O)CO[C@@H](Cn2ccc(N)nc2=O)CO1)NC(=O)[C@@H](N)C(C)C` (stereo partly drawn) [Val-Ser-OMe cHPMPC], the “binding and transport by hPEPT1” value with hPEPT1 is reported as “tightly bound but not transported”.
